Measurements taken from patent US8604217B2, “Compound, a process for its preparation, a pharmaceutical composition, use of a compound, a method for modulating or regulating serine/threonine kinases and a serine/threonine kinases modulating agent” (Selvita S.A., priority 2009, dated 2013).
Read-outs that look alike come from different tables or passages of the source.

What was measured:
PIM-1 = PIM-1 (Homo sapiens (Human), UniProt P11309); experiment: Luminometric kinase assay for PIM1 kinase (Kinase-Glo); assay type: biochemical; details: 1 μM ATP, 25 min at RT
Outline: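 Kinase and substrate reacted in 8 mM MOPS/NaOH pH7.0, 0.2 mM EDTA, 2 mM MgCl2 with 1 μM ATP for 25 min at RT, compounds serially diluted from 1 μM. Remaining ATP read by Kinase-Glo luminescence; IC50 from variable-slope sigmoidal fit.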

[1] = tested on: human myelomonocytic, biphenotypic leukemia MV4-11 cells; experiment: Growth inhibition test (MTS) on MV4-11 cells; assay type: cell-based; details: Homo sapiens, MV4-11, 72 hours, read-out: MV-4-11 ED50
Outline: MV4-

[2] = tested on: human erytroblast leukemia HEL-92.1.7 cells; experiment: Growth inhibition test (MTS) on HEL-92.1.7 cells; assay type: cell-based; details: 72 hours, read-out: HEL92 ED50
Protocol: (§1) Ten thousand cells of human erytroblast leukemia HEL-92.1.7 were inoculated into each well of a 96-well microplate (manufactured by Corning Corp.) using RPMI 1640 medium (culture medium) containing 10% fetal calf serum (FCS). Next day, a dimethyl sulfoxide (DMSO) solution of each test compound prepared in a concentration of 10 mmol/L was further diluted with culture medium to the desired concentrations (0.1, 0.5, 1, 2.5, 5 and 10 micromol/L), and the diluted solution was added to each well. The individual wells were further cultured in 5% carbon dioxide at 37° C. for 72 hours. After completion of the culture, 10 μl MTS (3-(4,5-Dimethyl-2-thiazolyl)-5-(carboxymethoxyphenyl)-2-(4-sulfophenyl)-2H-tetrazolium, inner salt assay (CellTiter96® AQueous One Solution Cell Proliferation Assay, Promega) was added to each well, and culturing was performed in 5% carbon dioxide at 37° C. for 2 hours. Using a microplate spectrophotometer (Synergy 2 multi-mode microplate reader (BioTek)), the absorbance of each well was measured at 490 nm. The value for cells not incorporated with a test compound was designated as 100%. By comparing these values with the absorbance difference obtained at the well in which each test compound was added, the cell viability (% viability) after treatment with the test compound was calculated.

[3] = tested on: human prostate adenocarcinoma PC3 cells; experiment: Growth inhibition test (MTS) on PC3 cells; assay type: cell-based; details: Homo sapiens, PC-3, 72 hours, read-out: PC-3 ED50
[4] = tested on: human hepatoma HepG2 cells; experiment: Growth inhibition test (MTS) on HepG2 cells; assay type: cell-based; details: 72 hours, read-out: HepG2 ED50
Outline: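 HepG2 cells in DMEM with 10% FCS were exposed for 72 h at 37 °C, 5% CO2, to 0.1, 0.5, 1, 2.5, 5 and 10 micromol/L compound. MTS was then added for 2 h and absorbance read at 490 nm. % viability was calculated relative to untreated cells set at 100%.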

[5] = tested on: human breast adenocarcinoma MCF7 cells; experiment: Growth inhibition test (MTS) on MCF7 cells; assay type: cell-based; details: read-out: MCF-7 ED50
Outline: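 MCF7 cells seeded in DMEM with 10% FCS, dosed next day at 0.1–10 micromol/L (diluted from 10 mmol/L DMSO stock) and cultured 72 h at 37° C, 5% CO2. MTS added for 2 h, absorbance read at 490 nm; % viability calculated relative to untreated cells as 100%.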

[6] = tested on: human chronic myelocytic leukemia K562 cells; experiment: Growth inhibition test (MTS) on K562 cells; assay type: cell-based; details: 72 hours, read-out: K562 ED50
Protocol: as §1, with “chronic myelocytic” for “erytroblast”, “K562” for “HEL-92.1.7”, “Iscove's MDM” for “RPMI 1640”

[7] = tested on: human colorectal adenocarcinoma SW480 cells; experiment: Growth inhibition test (MTS) on SW480 cells; assay type: cell-based; details: read-out: SW480 ED50
Protocol: as §1, with “Two” for “Ten”, “colorectal adenocarcinoma SW480” for “erytroblast leukemia HEL-92.1.7”, “Corp.), and” for “Corp.)”, “DMEM/Ham's F121:1” for “RPMI 1640”, “5%” for “10%”

[8] = tested on: human acute lymphocytic leukemia E6.1 Jurkat cells; experiment: Growth inhibition test (MTS) on E6.1 Jurkat cells; assay type: cell-based; details: 72 hours, read-out: Jurkat ED50
Protocol: as §1, with “Twenty” for “Ten”, “acute lumphocytic” for “erytroblast”, “E6.1 Jurkat” for “HEL-92.1.7”, “[…]” for “1640”

Chain of PIM-1 (P11309 whole entry): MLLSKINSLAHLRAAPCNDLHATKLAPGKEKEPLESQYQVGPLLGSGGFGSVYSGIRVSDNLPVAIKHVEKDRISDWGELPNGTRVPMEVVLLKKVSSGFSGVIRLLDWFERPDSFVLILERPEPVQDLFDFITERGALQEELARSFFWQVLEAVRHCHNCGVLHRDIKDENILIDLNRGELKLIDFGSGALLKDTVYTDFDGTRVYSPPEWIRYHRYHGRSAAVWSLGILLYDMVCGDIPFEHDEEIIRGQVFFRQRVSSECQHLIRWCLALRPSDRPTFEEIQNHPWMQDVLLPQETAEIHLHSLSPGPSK

Nc1ccccc1Nc1nc2c(Br)c(Br)c(Br)c(Br)c2[nH]1 [Compound 332, N1-(4,5,6,7-tetrabromo-1H-benzo[d]imidazol-2-yl)benzene-1,2-diamine]
IC50 (PIM-1): 0.0162 µM
IC50 [1]: 3.27 µM
IC50 [2]: 3.15 µM
IC50 [3]: 7.51 µM
IC50 [4]: 6.59 µM

CCOC(=O)N1CCN(c2nc3c(Br)c(Br)c(Br)c(Br)c3n2C(=O)OCC)CC1 [Compound 377, ethyl 2-(4-(ethoxycarbonyl)piperazin-1-yl)-4,5,6,7-tetrabromo-1H-benzo[d]imidazole-1-carboxylate]
IC50 [1]: 5.92 µM
IC50 [2]: 9.73 µM
IC50 [3]: 5.99 µM
IC50 [4]: 9.72 µM

CCOC(=O)N1CCN(c2nc3c(Br)c(Br)c(Br)c(Br)c3[nH]2)CC1 [Compound 376, ethyl 4-(4,5,6,7-tetrabromo-1H-benzo[d]imidazol-2-yl)piperazine-1-carboxylate]
IC50 [1]: 5.17 µM
IC50 [2]: 7.93 µM
IC50 [3]: 6.61 µM
IC50 [4]: 9.4 µM

CNCCCN(Cc1ccccc1)c1nc2c(Br)c(Br)c(Br)c(Br)c2[nH]1 [Compound 372, N-benzyl-4,5,6,7-tetrabromo-N-(3-(methylamino)propyl)-1H-benzo[d]imidazol-2-amine]
IC50 (PIM-1): 0.0452 µM
IC50 [1]: 1.65 µM
IC50 [2]: 3.98 µM
IC50 ([5]; Homo sapiens, MCF7, 72 hours): 2.54 µM
IC50 [3]: 2.4 µM
IC50 [4]: 1.32 µM

CN1CCN(c2nc3c(Br)c(Br)c(Br)c(Br)c3[nH]2)CC1 [Compound 21, 4,5,6,7-tetrabromo-2-(4-methylpiperazin-1-yl)-1H-benzo[d]imidazole]
IC50 (PIM-1): 0.0419 µM
IC50 [6]: 7.99 µM
IC50 ([7]; 72 hours): 5.98 µM
IC50 [4]: 6.32 µM

Brc1c(Br)c(Br)c2[nH]c(NCCN3CCCC3)nc2c1Br [Compound 14, 4,5,6,7-tetrabromo-N-(2-(pyrrolidin-1-yl)ethyl)-1H-benzo[d]imidazol-2-amine]
IC50 (PIM-1): 0.0578 µM
IC50 [6]: 3.59 µM
IC50 ([5]; 72 hours): 7.76 µM
IC50 ([7]; 72 hours): 1.53 µM
IC50 [3]: 3.96 µM
IC50 [4]: 2.12 µM

Nc1cc(F)c(F)cc1Nc1nc2c(Br)c(Br)c(Br)c(Br)c2[nH]1 [Compound 333, N1-(4,5,6,7-tetrabromo-1H-benzo[d]imidazol-2-yl)-4,5-difluorobenzene-1,2-diamine]
IC50 (PIM-1): 0.0485 µM
IC50 [1]: 3.86 µM
IC50 [2]: 3.25 µM
IC50 ([5]; Homo sapiens, MCF7, 72 hours): 4.76 µM
IC50 [3]: 2.49 µM
IC50 [4]: 4.52 µM

NCc1cccc(CNc2nc3c(Br)c(Br)c(Br)c(Br)c3[nH]2)c1 [Compound 354, N-(3-(aminomethyl)benzyl)-4,5,6,7-tetrabromo-1H-benzo[d]imidazol-2-amine]
IC50 (PIM-1): 0.108 µM
IC50 [1]: 4.47 µM
IC50 [2]: 6.93 µM
IC50 ([5]; Homo sapiens, MCF7, 72 hours): 3.09 µM
IC50 [3]: 8.59 µM
IC50 [4]: 2.61 µM

CN1CCN(C2CCN(c3nc4c(Br)c(Br)c(Br)c(Br)c4[nH]3)CC2)CC1 [Compound 385, 4,5,6,7-tetrabromo-2-(4-(4-methylpiperazin-1-yl)piperidin-1-yl)-1H-benzo[d]imidazole]
IC50 (PIM-1): 0.0453 µM
IC50 [1]: 4.57 µM
IC50 [2]: 2.21 µM
IC50 ([5]; Homo sapiens, MCF7, 72 hours): 5.8 µM
IC50 [3]: 6.88 µM
IC50 [4]: 3.76 µM

Brc1c(Br)c(Br)c2[nH]c(NCCN3CCCCC3)nc2c1Br [Compound 13, 4,5,6,7-tetrabromo-N-(2-(piperidin-1-yl)ethyl)-1H-benzo[d]imidazol-2-amine]
IC50 (PIM-1): 0.319 µM
IC50 [6]: 3.72 µM
IC50 ([5]; 72 hours): 3.65 µM
IC50 ([7]; 72 hours): 1.08 µM
IC50 [3]: 3.86 µM
IC50 [4]: 2.54 µM

Brc1c(Br)c(Br)c2[nH]c(NCCCn3ccnc3)nc2c1Br [Compound 65, N-(3-(1H-imidazol-1-yl)propyl)-4,5,6,7-tetrabromo-1H-benzo[d]imidazol-2-amine]
IC50 (PIM-1): 0.0227 µM
IC50 [1]: 3.46 µM
IC50 [2]: 8.37 µM
IC50 ([5]; Homo sapiens, MCF7, 72 hours): 8.22 µM
IC50 ([7]; 72 hours): 6.92 µM
IC50 [3]: 7.45 µM

N[C@H]1CCCC[C@H]1Nc1nc2c(Br)c(Br)c(Br)c(Br)c2[nH]1 (relative stereo) [Compound 304cis, cis N1-(4,5,6,7-tetrabromo-1H-benzo[d]imidazol-2-yl)cyclohexane-1,2-diamine]
IC50 (PIM-1): 0.0069 µM
IC50 [1]: 0.33 µM
IC50 [2]: 1.82 µM
IC50 ([5]; Homo sapiens, MCF7, 72 hours): 0.7 µM
IC50 [3]: 1.47 µM
IC50 [4]: 1.34 µM

N[C@H]1CCCC[C@@H]1Nc1nc2c(Br)c(Br)c(Br)c(Br)c2[nH]1 [Compound 304SS, (1S,2S)-N1-(4,5,6,7-tetrabromo-1H-benzo[d]imidazol-2-yl)cyclohexane-1,2-diamine]
IC50 (PIM-1): 0.0116 µM
IC50 [1]: 0.98 µM
IC50 [8]: 5.07 µM
IC50 ([5]; Homo sapiens, MCF7, 72 hours): 5.03 µM
IC50 [3]: 5.17 µM
IC50 [4]: 3.21 µM

Cc1nc2ccccn2c1CN1CCN(c2nc3c(Br)c(Br)c(Br)c(Br)c3[nH]2)CC1 [Compound 414, 4,5,6,7-tetrabromo-2-(4-((2-methyl-1H-imidazo[1,2-a]pyridin-3-yl)methyl)piperazin-1-yl)-1H-benzo[d]imidazole]
IC50 [1]: 3.03 µM
IC50 [2]: 7.1 µM
IC50 ([5]; Homo sapiens, MCF7, 72 hours): 8.23 µM
IC50 ([7]; Homo sapiens, SW480, 72 hours): 4.32 µM
IC50 [3]: 8.94 µM

CCN1CCCC1CNc1nc2c(Br)c(Br)c(Br)c(Br)c2[nH]1 (stereo not shown) [Compound 265a, 4,5,6,7-tetrabromo-N-((1-ethylpyrrolidin-2-yl)methyl)-1H-benzo[d]imidazol-2-amine]
IC50 (PIM-1): 0.0674 µM
IC50 [1]: 2.22 µM
IC50 [8]: 3.62 µM
IC50 ([5]; Homo sapiens, MCF7, 72 hours): 3.09 µM
IC50 [3]: 4.57 µM
IC50 [4]: 1.8 µM
